{"source": "patent US20040254162A1", "about": "“Oxazolidinone derivatives as antimicrobials” (priority 2001, published 2004)", "key": {"[1]": {"tested_on": "Peptostreptococcus tetradius", "test": "Agar dilution MIC, anaerobes", "format": "cell-based", "conditions": "Anaerococcus tetradius, single isolates, anaerobic agar dilution; read-out: MIC Peptostreptococcus tetradius"}, "Fusobacterium varium": {"tested_on": "Fusobacterium varium", "test": "Agar dilution MIC, anaerobes", "format": "cell-based", "conditions": "Fusobacterium varium, single isolates, anaerobic agar dilution; read-out: MIC Fusobacterium varium"}, "Bacteroides fragilis": {"tested_on": "Bacteroides fragilis", "test": "Agar dilution MIC, anaerobes", "format": "cell-based", "conditions": "Bacteroides fragilis, single isolates, anaerobic agar dilution; read-out: MIC Bacteroides fragilis"}, "[2]": {"tested_on": "MRSE 879 adherent bacteria", "test": "Sintered glass adherent bacteria model", "conditions": "MRSE 879, sintered glass adherent bacteria model"}, "S. aureus ATCC 25923": {"tested_on": "S. aureus ATCC 25923", "test": "MIC, agar incorporation method", "conditions": "Staphylococcus aureus, ATCC25923, read-out: MIC S. aureus 25923"}, "MRSA 562": {"tested_on": "MRSA 562", "test": "MIC, agar incorporation method", "conditions": "Staphylococcus aureus, MRSA"}, "Strep. pyog. ATCC 19615": {"tested_on": "Strep. pyog. ATCC 19615", "test": "MIC, agar incorporation method", "conditions": "Streptococcus pyogenes, ATCC19615, read-out: MIC S. pyogenes 19615"}, "[3]": {"tested_on": "Prevotella (Bacteroides) disiens", "test": "Agar dilution MIC, anaerobes", "format": "cell-based", "conditions": "single isolates, anaerobic agar dilution; read-out: MIC Prevotella (Bacteroides) disiens"}, "[4]": {"tested_on": "Porphyromonas asaccharolytica", "test": "Agar dilution MIC, anaerobes", "format": "cell-based", "conditions": "Porphyromonas asaccharolytica; single isolate, anaerobic agar dilution; read-out: MIC Porphyromonas asaccharolytica"}, "Fusobacterium nucleatum": {"tested_on": "Fusobacterium nucleatum", "test": "Agar dilution MIC, anaerobes", "format": "cell-based", "conditions": "single isolates, anaerobic agar dilution"}, "S. pneum AB 34": {"tested_on": "S. pneum AB 34", "test": "MIC, agar incorporation method", "conditions": "Streptococcus pneumoniae, AB34, read-out: MIC S. pneum AB 34"}, "Eubacterium leutum": {"tested_on": "Eubacterium leutum", "test": "Agar dilution MIC, anaerobes", "format": "cell-based", "conditions": "Eubacterium, single isolates, anaerobic agar dilution; read-out: MIC Eubacterium leutum"}}, "note": "Read-outs that look alike come from different tables or passages of the source."}
{"smiles": "CC(=O)NC[C@H]1CN(c2ccc(N3CCOCC3)c(F)c2)C(=O)O1", "note": "[Linezolid]", "values": [{"measurement": "MIC", "setting": "[1]", "value": 0.5, "unit": "µg/mL"}, {"measurement": "MIC", "setting": "Fusobacterium varium", "value": 1, "unit": "µg/mL"}, {"measurement": "MIC", "setting": "Bacteroides fragilis", "value": 4, "unit": "µg/mL"}, {"measurement": "concentration which would kill adherent bacteria", "setting": "[2]", "value": 32, "unit": "µg/mL"}, {"measurement": "MIC", "setting": "S. aureus ATCC 25923", "value": 2, "unit": "µg/mL"}, {"measurement": "MIC", "setting": "MRSA 562", "value": 2, "unit": "µg/mL"}, {"measurement": "MIC", "setting": "MRSA 562; read-out: MIC MRSA 562", "value": 2, "unit": "µg/mL"}, {"measurement": "MIC", "setting": "Strep. pyog. ATCC 19615", "value": 2, "unit": "µg/mL"}, {"measurement": "MIC", "setting": "[3]", "value": 4, "unit": "µg/mL"}, {"measurement": "MIC", "setting": "[4]", "value": 1, "unit": "µg/mL"}, {"measurement": "MIC", "setting": "Fusobacterium nucleatum; Fusobacterium nucleatum, read-out: MIC Fusobacterium nucleatum", "value": 0.5, "unit": "µg/mL"}, {"measurement": "MIC Fusobacterium nucleatum", "setting": "Fusobacterium nucleatum", "value": 1, "unit": "µg/mL"}, {"measurement": "MIC", "setting": "S. pneum AB 34", "value": 4, "unit": "µg/mL"}, {"measurement": "MIC", "setting": "Eubacterium leutum", "value": 1, "unit": "µg/mL"}]}
